Like-named read-outs stand apart in the source and are kept apart here.

In test [1] the test system is #9. Description: cells. Details: species or system primary ALL patient cells; 3H-thymidine incorporation proliferation assay in primary ALL patient cells. Conditions: 48 h. The procedure:
(§1) Synthesis details of YKL-06-101 and JH-XI-10-02 are provided in Supplementary Notes 1 and 2. Proliferation of degrader-exposed human leukemic cell lines and primary ALL patient cells were examined by measuring 3H-thymidine uptake after 48 h. For immunoblottings and FACS analysis, cells were incubated with the indicated concentrations of the degraders up to 96 h.  Fig. 7 Chemical CDK8 degradation cooperates with mTOR inhibition. a Co-expression matrix of CDK8 and members of mTOR/PI3K signaling pathways in samples of 203 pediatric ALL patients (TARGET cohort, RNA-seq) and b 179 AML patients (TCGA AML cohort, RNA-seq). […] DMSO was used as vehicle control (D: DMSO, n = 3). Immunoblots show mTOR, CDK8, and pS6 after incubation of f REH cells or g Z119 cells with 0.5 µM and 1 µM of JH-XI-10-02 or YKL-06-101 for 48, 72, and 96 h. DMSO (indicated as D) was used as vehicle control and β-actin served as loading control. h AnnexinV/7AAD staining of Z119 cells incubated with 0.5 µM and 1 µM of JH-XI-10-02 or YKL-06-101 for 72 and 96 h. DMSO was used as a vehicle control (D: DMSO, n = 3). i AnnexinV/7AAD staining of Z119 cells incubated with Torin1, JH-XI-10-02, or both in combination with indicated concentrations for 72 and 96 h. DMSO (indicated as D) was used as a vehicle control. One representative experiment out of three is depicted. j Bar diagram depicts relative thymidine incorporation of six primary B-ALL patient samples incubated for 48 h with 1 μM of YKL-06-101. Patient #1 represents a non-responder, patient #4 was BCR-ABL1^+ (Ph^+), whereas the others were BCR-ABL1^− (Ph^−). Levels of significance were calculated using Kruskal–Wallis test followed by Dunn’s test, data represents means ± SD (*p < 0.05, **p < 0.01). Source data are provided as a Source Data file

Test [2] has as its system #3. Nature of the test: cells. Details: species or system primary ALL patient cells; 3H-thymidine incorporation proliferation assay in primary ALL patient cells. As to conditions: 48 h. The procedure: as §1
Test [3] concerns #15. Nature of the test: cells. Details: species or system primary ALL patient cells; 3H-thymidine incorporation proliferation assay in primary ALL patient cells. Conditions: 48 h. The procedure:
as §1

Test [4] concerns #4. Nature of the test: cells. Details: species or system primary ALL patient cells; 3H-thymidine incorporation proliferation assay in primary ALL patient cells. Conditions: 48 h. The procedure: as §1
For test [5], the system named is #8. Description: cells. Further details: species or system primary ALL patient cells; 3H-thymidine incorporation proliferation assay in primary ALL patient cells. Conditions: 48 h. The protocol:
as §1

The subject of test [6] is #6. Nature of the test: cells. Details: species or system primary ALL patient cells; 3H-thymidine incorporation proliferation assay in primary ALL patient cells. As to conditions: 48 h. The procedure: as §1
Test [7] deals with #1. Description: cells. As to conditions: 48 h. Further details: species or system primary ALL patient cells; 3H-thymidine incorporation proliferation assay in primary ALL patient cells. The protocol: as §1
Test [8] has as its system #11. Nature of the test: cells. Conditions: 48 h. Further details: species or system primary ALL patient cells; 3H-thymidine incorporation proliferation assay in primary ALL patient cells. The procedure: as §1
Test [9] deals with #7. Description: cells. Details: species or system primary ALL patient cells; 3H-thymidine incorporation proliferation assay in primary ALL patient cells. Conditions: 48 h. The protocol: as §1
Test [10] relates to #14. Description: cells. As to conditions: 48 h. Further details: species or system primary ALL patient cells; 3H-thymidine incorporation proliferation assay in primary ALL patient cells. The procedure: as §1
Test [11] concerns #12. Nature of the test: cells. Details: species or system primary ALL patient cells; 3H-thymidine incorporation proliferation assay in primary ALL patient cells. Conditions: 48 h. The protocol:
as §1

Test [12] concerns #13. Nature of the test: cells. Further details: species or system primary ALL patient cells; 3H-thymidine incorporation proliferation assay in primary ALL patient cells. As to conditions: 48 h. The procedure:
as §1

Test [13] concerns the target CDK8 (Homo sapiens, UniProt P49336). Description: CDK8 kinase inhibition IC50 (assay not detailed in main text). In kind it is biochemical.

CDK8, sequence (P49336 whole entry): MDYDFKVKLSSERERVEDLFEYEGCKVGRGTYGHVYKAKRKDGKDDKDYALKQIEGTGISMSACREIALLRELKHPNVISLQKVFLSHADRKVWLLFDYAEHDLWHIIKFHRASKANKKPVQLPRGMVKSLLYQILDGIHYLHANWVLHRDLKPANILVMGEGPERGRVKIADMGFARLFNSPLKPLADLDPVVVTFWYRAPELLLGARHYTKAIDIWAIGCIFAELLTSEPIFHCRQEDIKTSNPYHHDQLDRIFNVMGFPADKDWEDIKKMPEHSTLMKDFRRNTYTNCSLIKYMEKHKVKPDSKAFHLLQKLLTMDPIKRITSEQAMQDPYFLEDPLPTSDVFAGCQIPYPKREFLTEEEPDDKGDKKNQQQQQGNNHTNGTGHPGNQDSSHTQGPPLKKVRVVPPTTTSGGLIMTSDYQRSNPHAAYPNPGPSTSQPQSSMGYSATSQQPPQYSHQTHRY

Regarding `CN(C(=O)CCOCCOCCOCCOCCNc1cccc2c1C(=O)N(C1CCC(=O)NC1=O)C2=O)[C@H]1CC[C@@]2(C)[C@@H](CC[C@@H]3[C@@H]2CC[C@]2(C)[C@@H](c4ccc5ccncc5c4)CC[C@@H]32)C1` (stereo partly shown) [JH-XI-10-02], the IC50 in [1] (read-out: JH-XI-10-02 IC50), in test [2] (read-out: JH-XI-10-02 IC50), in [3] (read-out: JH-XI-10-02 IC50), in test [4] (read-out: JH-XI-10-02 IC50), in test [5] (read-out: JH-XI-10-02 IC50) and in [6] (read-out: JH-XI-10-02 IC50) was greater than 10 µM throughout. In addition, the IC50 in test [7] (read-out: JH-XI-10-02 IC50), in [8] (read-out: JH-XI-10-02 IC50), in test [9] (read-out: JH-XI-10-02 IC50), in [10] (read-out: JH-XI-10-02 IC50), in test [11] (read-out: JH-XI-10-02 IC50) and in [12] (read-out: JH-XI-10-02 IC50) was greater than 10 µM in each case.

Regarding THZ4-55, half-maximal inhibition in test [13] (IC50) required 0.005 µM.

Take `O=C1CCC(N2C(=O)c3cccc(NCCOCCOCCOCCOCCOCCC(=O)N4CCN(c5ccc(-n6c(=O)ccc7cnc8ccc(-c9ccc%10ccncc%10c9)cc8c76)cc5C(F)(F)F)CC4)c3C2=O)C(=O)N1` (stereo not shown) [YKL-06-101]: the IC50 – broadly, the concentration at which inhibition is half-maximal – in [1] (read-out: YKL-06-101 IC50) is 9 µM; in test [2] (read-out: YKL-06-101 IC50) it was 0.9 µM; in test [3] (read-out: YKL-06-101 IC50), 10 µM; in test [4] (read-out: YKL-06-101 IC50), greater than 10 µM; in [5] (read-out: YKL-06-101 IC50), greater than 10 µM; in test [6] (read-out: YKL-06-101 IC50), 0.1 µM. In addition, the IC50 in test [7] (read-out: YKL-06-101 IC50) is greater than 10 µM; in test [8] (read-out: YKL-06-101 IC50), 0.4 µM; in test [9] (read-out: YKL-06-101 IC50), greater than 10 µM; in test [10] (read-out: YKL-06-101 IC50) it was greater than 10 µM; in test [11] (read-out: YKL-06-101 IC50) it was greater than 10 µM; in [12] (read-out: YKL-06-101 IC50), 0.3 µM.

The record behind these values is article PMC6802219, “A kinase-independent role for CDK8 in BCR-ABL1^+ leukemia” (Nature Communications, 2019).
